Assay results from patent publication US20170354147A1, “SAFENING AMINOPYRALID COMPOSITIONS IN BRASSICA SPECIES WITH CLOPYRALID AND METHODS OF USE THEREOF” (Dow AgroSciences LLC, priority 2016, published 2017).
Several values for one entry are separate records, joined by “and”; a condition that tells them apart may be missing. Equal values may be shown once.

What was measured:
Assay type in all cases: in vivo
[1] = test system: Aparima Gold swede (Brassica sp., BRSSS); experiment: Pot trials, postemergence crop safety (visual injury) to Aparima Gold swede
Source text: (§1) The following equation was used to calculate the expected activity of mixtures containing two active ingredients, A and B:
(§2) Expected=A+B−(A×B/100) • A=observed efficacy of active ingredient A at the same concentration as used in the mixture; • B=observed efficacy of active ingredient B at the same concentration as used in the mixture.
(§3) BRSOM=Brassica oleracea var. acephala subvar. Medullosa (stem kale) BRSSS=Brassica sp. (Aparima Gold swede) BRSNS-RR=Brassica napus (spring rape or Spring Argentine rape, Roundup® Ready) g ae/ha=grams acid equivalent per hectare Mean % visual injury=observed value of percent (%) injury rated visually Observed Mean % visual injury=observed value of percent (%) injury rated visually Colby predicted mean % visual injury=expected value of percent (%) injury as calculated by Colby's equation Mean % visual leafroll=observed value of percent (%) leafroll rated visually Observed Mean % visual leafroll=observed value of percent (%) leafroll rated visually Colby predicted mean % visual leafroll=expected value of percent (%) leafroll as calculated by Colby's equation Mean % visual growth inhibition=observed value of percent (%) growth inhibition rated visually Observed Mean % visual growth inhibition=observed value of percent (%) growth inhibition rated visually Colby predicted mean % visual growth inhibition=expected value of percent (%) growth inhibition as calculated by Colby's equation
(§4) Two pot trials were established at Dow AgroSciences Waireka Field Research Station, New Zealand to evaluate crop safety of herbicide treatments to two species of leafy and bulb forage brassica crops (stem kale (Brassica oleracea var. acephala subvar. medullosa, BRSOM) and Aparima Gold swede (Brassica sp., BRSSS)). Trials were designed as randomized complete blocks with five replicates. Trials were established as weed-free tolerance trials. Pot size was 10 by 10 centimeters (cm, width×length). The forage brassica crops were grown using normal cultural practices for fertilization, seeding, watering and maintenance to ensure good growth of the crops.
(§5) All herbicide treatments were applied post-emergence with applications made to the crops at the 2 to 5-leaf stage. Herbicides were applied with a belt spray chamber system with compressed air as a propellant. The sprayer utilized a flat fan spray nozzle calibrated to deliver a uniform spray pattern that provided thorough coverage of the foliage using a 200 liters per hectare (L/ha) spray volume. All treatments were applied with Uptake adjuvant (paraffinic oil/Non-Ionic Surfactant blend) at 0.5% volume per volume (v/v). Phytotoxicity to the crops was assessed visually at several intervals after application as percent overall injury, compared to an untreated control plot. The overall injury assessments were based on visual ratings of growth inhibition, leaf deformity, epinasty, and chlorosis.
(§6) Aminopyralid-triisopropanolammonium (TIPA) was applied as Tordon™ Max Herbicide (30 grams acid equivalent per liter (g ae/L) soluble (liquid) concentrate (SL)), and clopyralid-TIPA was applied as Versatill™ (300 g ae/L SL), The compositions tested, application rates employed, plant species tested, and results are given in Table 1 through Table 3.

[2] = test system: Aparima Gold swede (Brassica sp., BRSSS); experiment: Field trials Canterbury, New Zealand, postemergence crop safety (visual injury, growth inhibition) to Aparima Gold swede
Source text: as §1, §2, §3
Two field trials were established in Canterbury, New Zealand to evaluate crop safety of herbicide treatments to leafy forage brassica crops (Aparima Gold swede (Brassica sp., BRSSS)). Trials were designed as randomized complete blocks with four replicates. All trials were established as weed-free tolerance trials with plot size of 3 meters (m) by 8 m (width×length). The crops were grown using normal cultural practices for fertilization, seeding, and maintenance to ensure good growth of the crop.
All herbicide treatments were applied post-emergence with applications made to the crops at the 3 to 5-leaf stage. Herbicides were applied with backpack sprayers using carbon dioxide (CO2) as a propellant. […] All treatments were applied with Uptake adjuvant (paraffinic oil/Non-Ionic Surfactant blend) at 1% v/v. Phytotoxicity to the crops was assessed visually at several intervals after application as percent overall injury, compared to an untreated control plot. The overall injury assessments were based on visual ratings of growth inhibition, leaf deformity, epinasty, and chlorosis.
Aminopyralid-TIPA was applied as Tordon™ Max Herbicide (30 g ae/L SL), and clopyralid-TIPA was applied as Versatill™ (300 g ae/L SL),

[3] = test system: Spring Argentine canola (Brassica napus, BRSNS), Nex 1012 glyphosate-tolerant, BRSNS-RR; experiment: Field trials Canada, postemergence crop safety (visual injury) to glyphosate-tolerant Spring Argentine canola
Source text: as §3
Field trials were established in Canada (in Manitoba, Alberta, and Saskatchewan) to evaluate crop safety of herbicide treatments to Spring Argentine canola (Brassica napus, BRSNS). Trials were designed as randomized complete blocks with four replicates. Trials were established as weed-free crop tolerance trials with plot sizes of 2-3 meters (m) by 8-25 m (width×length). The crops were grown using normal cultural practices for fertilization, seeding, and maintenance to ensure good growth of the crop.
The overall injury assessments were based on visual ratings of growth inhibition, leaf deformity, epinasty, chlorosis and delay in maturity. Assessments were made at 8-10 days after treatment (DAT) for an initial rating, 14-17 DAT for an early-season rating, 28-32 DAT for a mid-season rating, and 42-55 DAT for a late-season rating.
Aminopyralid-triisopropanolammonium (TIPA) was applied as Milestone® (240 g ae/L SL); clopyralid-olamine was applied as Lontrel™ 360 (360 g ae/L SL); and glyphosate-dimethylammonium was applied as Vantage™ XRT (480 g ae/L SL).

[4] = test system: stem kale (Brassica oleracea var. acephala subvar. medullosa, BRSOM); experiment: Pot trials, postemergence crop safety (visual injury, leafroll) to stem kale
Source text: as §1, §2, §3, §4, §5, §6

[5] = 10 g ae/ha, with Glyphosate-DMA 450 g ae/ha
[6] = 20 g ae/ha, with Glyphosate-DMA 450 g ae/ha
[7] = Glyphosate-DMA 450 g ae/ha alone (Aminopyralid-TIPA 0 g ae/ha)

## Nc1cc(Cl)nc(C(=O)O)c1Cl [Aminopyralid TIPA, tris (2-hydroxypropyl)ammonium 4-amino-3,6-dichloropyridine-2-carboxylate]
[1]; 3DAA1, 60 g ae/ha
  Mean % Visual Injury: 6.8%
[1]; 7DAA1, 60 g ae/ha
  Mean % Visual Injury: 9.6%
[1]; 15DAA1, 60 g ae/ha
  Mean % Visual Injury: 15.4%
[1]; 28DAA1, 60 g ae/ha
  Mean % Visual Injury: 15.6%
[2]; 13DAA1, 60 g ae/ha
  Mean % Visual Growth Inhibition: 28.8% and 28.9%
  Mean % Visual Injury: 22.5%
[2]; 22DAA1, 60 g ae/ha
  Mean % Visual Injury: 28.8%
[2]; 28DAA1, 60 g ae/ha
  Mean % Visual Growth Inhibition: 45.0%
  Mean % Visual Injury: 38.8%
[2]; 56DAA1, 60 g ae/ha
  Mean % Visual Growth Inhibition: 8.8%
[3]; [5]
  Mean % Visual Injury Early (14-17) DAT: 1.9%
  Mean % Visual Injury Initial (8-10 DAT): 2.8%
  Mean % Visual Injury Late (42-55 DAT): 1.5%
  Mean % Visual Injury Mid (28-32 DAT): 2.3%
[3]; [6]
  Mean % Visual Injury Early (14-17) DAT: 5%
  Mean % Visual Injury Initial (8-10 DAT): 5%
  Mean % Visual Injury Late (42-55 DAT): 0.6%
  Mean % Visual Injury Mid (28-32 DAT): 5.6%

## O=C(O)c1nc(Cl)ccc1Cl [Clopyralid TIPA, (2RS,2′RS,2″RS)-tris(2-hydroxypropyl)ammonium 3,6-dichloropyridine-2-carboxylate]
[4]; 1DAA1, 90 g ae/ha
  Mean % Visual Leafroll: 0.0%
[4]; 1DAA1, 180 g ae/ha
  Mean % Visual Leafroll: 0.0%
[4]; 1DAA1, 360 g ae/ha
  Mean % Visual Leafroll: 0.0%
[4]; 4DAA1, 90 g ae/ha
  Mean % Visual Leafroll: 0.0%
[4]; 4DAA1, 180 g ae/ha
  Mean % Visual Leafroll: 0.0%
[4]; 7DAA1, 45.0 g ae/ha
  Mean % Visual Injury: 0.0% and 0.7%
[4]; 7DAA1, 90.0 g ae/ha
  Mean % Visual Injury: 0.0% and 0.7%
[4]; 7DAA1, 180.0 g ae/ha
  Mean % Visual Injury: 0.0% and 0.7%
[4]; 7DAA1, 360.0 g ae/ha
  Mean % Visual Injury: 0.0% and 0.7%
[4]; 15DAA1, 22.5 g ae/ha
  Mean % Visual Injury: 0.0%
[4]; 15DAA1, 45 g ae/ha
  Mean % Visual Injury: 0%
[4]; 15DAA1, 90 g ae/ha
  Mean % Visual Injury: 0%
  Mean % Visual Leafroll: 0.0%
[4]; 15DAA1, 180 g ae/ha
  Mean % Visual Leafroll: 0.0%
[4]; 15DAA1, 180.0 g ae/ha
  Mean % Visual Injury: 0.0%
[4]; 15DAA1, 360 g ae/ha
  Mean % Visual Leafroll: 0.0%
[4]; 15DAA1, 360.0 g ae/ha
  Mean % Visual Injury: 0.0%
[4]; 28DAA1, 90.0 g ae/ha
  Mean % Visual Injury: 0.0%
[4]; 28DAA1, 360 g ae/ha
  Mean % Visual Injury: 0%
  Mean % Visual Leafroll: 0.0%
[1]; 3DAA1, 90 g ae/ha
  Mean % Visual Injury: 2.2%
[1]; 7DAA1, 90 g ae/ha
  Mean % Visual Injury: 0.4%
[1]; 15DAA1, 90 g ae/ha
  Mean % Visual Injury: 0.0%
[1]; 28DAA1, 90 g ae/ha
  Mean % Visual Injury: 0.0%
[2]; 13DAA1, 45 g ae/ha
  Mean % Growth Inhibition: 2.8%
  Mean % Visual Injury: 0.8%
[2]; 13DAA1, 90 g ae/ha
  Mean % Growth Inhibition: 8.8%
[2]; 13DAA1, 180 g ae/ha
  Mean % Growth Inhibition: 7.5%
  Mean % Visual Injury: 2.3%
[2]; 22DAA1, 45 g ae/ha
  Mean % Visual Injury: 0.0%
[2]; 28DAA1, 180 g ae/ha
  Mean % Growth Inhibition: 3.8%
  Mean % Visual Injury: 3.0%
[2]; 56DAA1, 45 g ae/ha
  Mean % Growth Inhibition: 6.0%

## CNC.O=C(O)CNCP(=O)(O)O [Glyphosate-DMA]
[3]; [7]
  Mean % Visual Injury Early (14-17) DAT: 0.4%
  Mean % Visual Injury Initial (8-10 DAT): 1%
  Mean % Visual Injury Late (42-55 DAT): 0.2%
  Mean % Visual Injury Mid (28-32 DAT): 1.5%
